Experimental data from paper PMC9774391 (ACS Omega, 2022).

Tests used:
AChE = AChE (Homo sapiens, UniProt P22303); test: biochemical
Description: (§1) According to the modified Ellman approach outlined in our team’s earlier work, the AChE and BChE inhibitory activities of the obtained compounds were evaluated.[18]−[21]

BChE = BChE (Homo sapiens, UniProt P06276); test: biochemical
Description: as §1

MAO-A [1] = target: T1, MAO-A (Homo sapiens, UniProt P21397); test: In vitro MAO-A inhibition assay (fluorometric); type: biochemical
T1 sequence (P21397 1-527): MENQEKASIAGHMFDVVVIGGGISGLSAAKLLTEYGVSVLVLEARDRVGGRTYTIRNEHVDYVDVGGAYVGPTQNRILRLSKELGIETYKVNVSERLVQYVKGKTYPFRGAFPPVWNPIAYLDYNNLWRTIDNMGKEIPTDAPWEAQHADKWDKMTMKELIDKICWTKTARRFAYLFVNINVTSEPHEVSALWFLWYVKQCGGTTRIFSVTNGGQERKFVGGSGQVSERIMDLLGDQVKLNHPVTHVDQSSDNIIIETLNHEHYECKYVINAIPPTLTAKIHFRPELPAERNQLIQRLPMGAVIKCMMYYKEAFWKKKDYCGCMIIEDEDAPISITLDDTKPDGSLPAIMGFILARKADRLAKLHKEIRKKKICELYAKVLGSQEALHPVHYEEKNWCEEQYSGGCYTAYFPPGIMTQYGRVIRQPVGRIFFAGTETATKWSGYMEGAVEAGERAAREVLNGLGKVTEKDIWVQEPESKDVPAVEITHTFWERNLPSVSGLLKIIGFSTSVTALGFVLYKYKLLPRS

MAO-B [2] = target: T2, MAO-B (Homo sapiens, UniProt P27338); test: In vitro MAO-B inhibition assay (fluorometric); type: biochemical; details: for inhibition at 10 µM: 10^–5 M; for inhibition at 1 µM: 10^–6 M; for inhibition at 0.1 µM: 10^–7 M; for inhibition at 0.01 µM: 10^–8 M; for inhibition at 0.001 µM: 10^–9 M
T2 sequence (P27338 1-520): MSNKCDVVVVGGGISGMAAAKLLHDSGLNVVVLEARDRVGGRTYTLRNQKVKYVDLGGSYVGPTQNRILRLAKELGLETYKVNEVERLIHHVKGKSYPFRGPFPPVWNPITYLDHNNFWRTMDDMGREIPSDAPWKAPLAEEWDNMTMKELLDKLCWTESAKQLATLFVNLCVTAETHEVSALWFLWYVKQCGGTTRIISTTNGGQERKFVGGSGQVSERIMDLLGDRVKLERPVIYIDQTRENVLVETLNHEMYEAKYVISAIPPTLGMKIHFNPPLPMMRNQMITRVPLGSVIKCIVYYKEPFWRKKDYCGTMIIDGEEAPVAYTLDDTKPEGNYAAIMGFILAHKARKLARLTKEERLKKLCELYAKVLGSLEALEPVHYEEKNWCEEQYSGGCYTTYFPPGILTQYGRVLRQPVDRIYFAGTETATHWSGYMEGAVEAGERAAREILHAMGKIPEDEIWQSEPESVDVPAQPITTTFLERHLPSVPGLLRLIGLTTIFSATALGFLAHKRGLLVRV

[3] = system: NIH/3T3 mouse embryonic fibroblast cell line; test: Cytotoxicity test (MTT); type: cell-based; details: NIH/3T3 mouse fibroblast healthy cell line
Description: (§2) The NIH/3T3 cells were incubated according to the manufacturer’s recommendations. In 96-well plates, NIH/3T3 cells were seeded at a density of 1 × 10^4 cells per well. The MTT test was conducted in line with the previously mentioned standards.[19],[22],[23],[28],[30]

MAO-A [4] = target: T1, MAO-A; test: Enzyme kinetics on MAO-A (Lineweaver–Burk); type: biochemical
Description: (§3) The experimental procedures used in the kinetic investigations were identical to those used in the inhibition experiments. […]. Acetylthiocholine iodide (ATC) and butyrylthiocholine iodide (BTC) solutions were utilized as the substrates for the ChE enzymes, with serial dilutions at six different concentrations (600, 300, 150, 75, 37.5, and 18.75 μM). The tyramine substrate solution (concentrations ranging from 20 to 0.625 μM) was produced for the MAO enzymes at six different concentrations. Separate measurements were conducted both with and without an inhibitor. Using the Microsoft Office Excel 2013 program, the resulting absorbance values were compared to various substrate concentrations, and Lineweaver–Burk plots were created.[19]−[22]
(§4) The absorbance data from the experiments and the substrate concentrations were used to generate Lineweaver–Burk plots. The graphic’s x-axis stands for 1/[S] […] […]. The intersection of these four lines on the diagram was used to define the type of substrate and inhibitor reaction against the enzyme.
(§5) Reversible and irreversible inhibition of enzymes are the two categories that inhibition is commonly subdivided into. In irreversible inhibition, the inhibitor either creates a recalcitrant complex structure or establishes a covalent bond with the enzyme. […]

[5] = DPPH free-radical scavenging activity assay; details: serial dilution 10^–3–10^–9 M; read-out: IC50 on DPPH antioxidant activity
Description: This approach is based on evaluating the free-radical scavenging abilities of the stable 1,1-diphenyl-2-picrylhydrazyl (DPPH) radical. To create the DPHH solution, 9.86 mg of DPPH was weighed and diluted to 25 mL with methanol. The test wells were then filled with 100 μL of the DPPH solution and 100 μL of the test solutions. Only 200 μL of methanol was used for the blank reading, while the control reading required the usage of 100 μL each of methanol and the DPPH solution. Following incubation, a spectrophotometric measurement at 517 nm was carried out.[26],[27]

Beta Amyloid 1–42 (Aβ42) = target: T3, Beta Amyloid 1–42 (Aβ42) (Homo sapiens, UniProt P05067); test: Beta Amyloid 1–42 (Aβ42) inhibitor screening assay; type: biochemical; details: for inhibition at 100 µM: 10^–4 M
T3 construct: The Beta Amyloid 1–42 (Aβ42) Ligand Screening Assay kit; purchased BioVision, Milpitas, CA
T3 sequence (P05067 672-713 limits assumed): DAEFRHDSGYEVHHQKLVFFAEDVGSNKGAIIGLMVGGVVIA
Text: The Beta Amyloid 1–42 (Aβ42) Ligand Screening Assay kit (BioVision, Milpitas, CA) technique based on the fluorometric approach served as the basis for the experimental process.[21],[28],[29]

Cytotoxicity test (MTT) = type: cell-based; details: NIH/3T3 mouse embryonic fibroblast cells (ATCC CRL-1658), NIH/3T3 mouse fibroblast healthy cell line
Description: as §2

MAO-B [6] = target: T2, MAO-B; test: Enzyme kinetics on MAO-B (Lineweaver–Burk); type: biochemical
Description: as §3, §4, §5

[7] = read-out: % β-amyloid plaque inhibition

Sequence of BChE (P06276 29-602): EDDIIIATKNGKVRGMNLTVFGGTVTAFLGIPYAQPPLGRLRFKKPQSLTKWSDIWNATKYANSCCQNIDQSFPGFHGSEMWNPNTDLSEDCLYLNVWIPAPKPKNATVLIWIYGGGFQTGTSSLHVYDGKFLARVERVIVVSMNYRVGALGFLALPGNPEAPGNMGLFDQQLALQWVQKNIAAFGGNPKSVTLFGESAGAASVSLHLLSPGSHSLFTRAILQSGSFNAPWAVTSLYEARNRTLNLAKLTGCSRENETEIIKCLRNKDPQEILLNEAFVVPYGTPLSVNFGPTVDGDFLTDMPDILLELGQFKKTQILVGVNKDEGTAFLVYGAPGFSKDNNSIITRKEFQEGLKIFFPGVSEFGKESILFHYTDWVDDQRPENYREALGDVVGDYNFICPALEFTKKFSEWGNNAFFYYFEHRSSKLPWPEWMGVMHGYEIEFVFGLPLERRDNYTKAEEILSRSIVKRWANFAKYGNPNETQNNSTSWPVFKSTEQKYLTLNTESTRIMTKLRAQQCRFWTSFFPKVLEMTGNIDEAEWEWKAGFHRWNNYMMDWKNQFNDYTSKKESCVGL
Sequence of AChE (P22303 32-614): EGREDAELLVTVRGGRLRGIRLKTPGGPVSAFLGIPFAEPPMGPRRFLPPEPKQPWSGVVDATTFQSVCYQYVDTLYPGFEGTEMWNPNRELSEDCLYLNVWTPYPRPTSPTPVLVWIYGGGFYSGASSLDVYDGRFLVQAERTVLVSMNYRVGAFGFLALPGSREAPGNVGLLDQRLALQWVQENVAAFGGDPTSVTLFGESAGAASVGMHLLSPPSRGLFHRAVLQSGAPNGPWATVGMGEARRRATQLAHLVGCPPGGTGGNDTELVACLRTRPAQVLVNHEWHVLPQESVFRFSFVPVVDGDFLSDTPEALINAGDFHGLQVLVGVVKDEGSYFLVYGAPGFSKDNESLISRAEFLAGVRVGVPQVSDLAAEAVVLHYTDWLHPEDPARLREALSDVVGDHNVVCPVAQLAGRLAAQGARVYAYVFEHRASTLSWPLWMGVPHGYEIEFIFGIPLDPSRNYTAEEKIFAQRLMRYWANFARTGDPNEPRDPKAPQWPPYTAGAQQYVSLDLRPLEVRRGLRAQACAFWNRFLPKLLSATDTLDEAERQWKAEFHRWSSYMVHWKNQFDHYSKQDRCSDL

SMILES	IC50 (AChE)	inhibition at 1000 µM (AChE; 10^–3 M)	inhibition at 100 µM (AChE; 10^–4 M)	inhibition at 10 µM (AChE; 10^–5 M)	inhibition at 1 µM (AChE; 10^–6 M)	inhibition at 0.1 µM (AChE; 10^–7 M)	inhibition at 0.01 µM (AChE; 10^–8 M)	inhibition at 0.001 µM (AChE; 10^–9 M)	inhibition at 1000 µM (BChE; 10^–3 M)	inhibition at 100 µM (BChE; 10^–4 M)	inhibition at 1000 µM (MAO-A [1]; 10^–3 M)	IC50 (MAO-B [2])	inhibition at 1000 µM (MAO-B [2]; 10^–3 M)	inhibition at 100 µM (MAO-B [2]; 10^–4 M)	inhibition at 10 µM (MAO-B [2])	inhibition at 1 µM (MAO-B [2])	inhibition at 0.1 µM (MAO-B [2])	inhibition at 0.01 µM (MAO-B [2])	inhibition at 0.001 µM (MAO-B [2])	IC50 [5]	other results
COc1cc2c(cc1OC)C(=O)C(=Cc1ccc(NC(=O)CN3CCN(CCN(C)C)CC3)cc1)C2 [D24]	46.9 ± 1.9 nM																				human AChE inhibition (%) (AChE; 10^–3 M): 93.224 ± 1.719%; human AChE inhibition (%) (AChE; 10^–4 M): 90.486 ± 1.298%; human AChE inhibition (%) (AChE; 10^–5 M): 82.415 ± 1.102%; human AChE inhibition (%) (AChE; 10^–6 M): 72.846 ± 1.267%; human AChE inhibition (%) (AChE; 10^–7 M): 63.963 ± 1.088%; human AChE inhibition (%) (AChE; 10^–8 M): 41.281 ± 0.623%; human AChE inhibition (%) (AChE; 10^–9 M): 18.773 ± 0.411%; human BChE inhibition (%) (BChE; 10^–3 M): 97.932 ± 2.016%; human BChE inhibition (%) (BChE; 10^–4 M): 49.401 ± 0.559%; human MAO-A inhibition (%) (MAO-A [1]; 10^–3 M): 64.076 ± 0.323%; human MAO-A inhibition (%) (MAO-A [1]; 10^–4 M): 25.257 ± 0.621%; human MAO-B inhibition (%) (MAO-B [2]; 10^–3 M): 75.628 ± 1.426%; human MAO-B inhibition (%) (MAO-B [2]; 10^–4 M): 46.324 ± 0.521%; IC50 [3]: 18640 ± 119 nM
CCCN(C)CC(=O)Nc1ccc(/C=C2\Cc3cc(OC)ccc3C2=O)cc1 [D28]	24.8 ± 1 nM	98.6 ± 1.21%	95.3 ± 1.31%	92.8 ± 1.03%	87.1 ± 1.06%	72 ± 0.958%	36 ± 0.623%	19.4 ± 0.455%	61.3 ± 0.997%	36.6 ± 0.667%	89.6 ± 1.29%	40.9 ± 1.9 nM	92.6 ± 1.33%	89.3 ± 1.24%	80.5 ± 1.01%	75.2 ± 1.08%	67 ± 0.958%	41.5 ± 0.547%	18.8 ± 0.421%	210 ± 10 nM	IC50 (MAO-A [1]): 111 ± 4.7 nM; inhibition at 10 µM (MAO-A [1]; 10^–5 M): 72.7 ± 1.11%; inhibition at 1 µM (MAO-A [1]; 10^–6 M): 63.4 ± 1.08%; inhibition at 0.1 µM (MAO-A [1]; 10^–7 M): 59 ± 0.895%; inhibition at 0.01 µM (MAO-A [1]; 10^–8 M): 39.2 ± 0.714%; inhibition at 0.001 µM (MAO-A [1]; 10^–9 M): 18.7 ± 0.521%; fold stronger MAO-A inhibition compared to moclobemide (MAO-A [1]; ratio of IC50 values): 50 ×; type of inhibition of MAO-A (MAO-A [4]; Lineweaver–Burk plots): noncompetitive inhibition; Ki (MAO-A [4]; secondary plot of Lineweaver–Burk data, read-out: steady-state inhibition constant (Ki), MAO-A): 107 nM; inhibition at 1000 µM (Beta Amyloid 1–42 (Aβ42); 10^–3 M, read-out: % β-amyloid plaque inhibition): 82.7 ± 1.68%; inhibition at 100 µM (Beta Amyloid 1–42 (Aβ42); [7]): 75.6 ± 1.04%; IC50 (Beta Amyloid 1–42 (Aβ42); read-out: IC50 on β-amyloid plaque aggregation): 147 ± 5.3 nM; IC50 (Cytotoxicity test (MTT)): 6520 ± 175 nM
COc1ccc2c(c1)C/C(=C\c1ccc(NC(=O)CN(C)CCCN(C)C)cc1)C2=O [D37]	48.2 ± 1.7 nM	92.5 ± 1.57%	87.6 ± 1.68%	83.5 ± 1.23%	75.1 ± 1.08%	61.5 ± 0.965%	39.5 ± 0.489%	19.7 ± 0.508%	94.2 ± 1.39%	89.7 ± 1.25%	96.51 ± 0.736%	31.2 ± 0.8 nM	98.4 ± 1.63%	91.6 ± 1.24%	85.5 ± 1.12%	78.3 ± 1.07%	72.2 ± 1.1%	40.1 ± 0.561%	18.2 ± 0.418%	179 ± 7 nM	IC50 (BChE): 83.9 ± 3.4 nM; inhibition at 10 µM (BChE; 10^–5 M): 82.7 ± 1.01%; inhibition at 1 µM (BChE; 10^–6 M): 71.4 ± 1.35%; inhibition at 0.1 µM (BChE; 10^–7 M): 59.3 ± 0.754%; inhibition at 0.01 µM (BChE; 10^–8 M): 32.5 ± 0.355%; inhibition at 0.001 µM (BChE; 10^–9 M): 18.5 ± 0.471%; inhibition at 100 µM (MAO-A [1]; 10^–4 M): 37.8 ± 0.96%; type of inhibition of MAO-B (MAO-B [6]; Lineweaver–Burk plots): noncompetitive inhibition; Ki (MAO-B [6]; secondary plot of Lineweaver–Burk data, read-out: steady-state inhibition constant (Ki), MAO-B): 29.7 nM; inhibition at 100 µM (Beta Amyloid 1–42 (Aβ42); [7]): > 50%; IC50 (Cytotoxicity test (MTT)): 2290 ± 136 nM
